The target in experiment [1] is T1, GRP94 (Sus scrofa, UniProt Q29092). As to the kind of experiment: Fluorophore binding reactions with native or heat shocked GRP94 (fluorescence emission). The following applies: for fluorophore binding to heat shocked GRP94: 0.5 μM GRP94 heat shocked 15 minutes at 50° C., 5 μM probe.
Experiment [2] addresses N-terminal nucleotide binding pocket of Hsp90 (Saccharomyces cerevisiae, UniProt P02829). The settings on record: cited from earlier work.
Experiment [3] has as its target T1, GRP94. As to the kind of experiment: Tryptophan fluorescence (ligand-induced conformational change). The settings on record: 50 μM NECA, 50 μM geldanamycin, 2.5 mM ATP or 2.5 mM ADP, 1 hour at 37° C.
Protocol: Tryptophan Fluorescence. Tryptophan fluorescence measurements were conducted in a FLUOROMAX™ spectrofluorometer (Spex Industries, Inc. of Edison, N.J.) with the slit widths set to 1 nm for both excitation and emission. […] All spectra were corrected by subtraction of buffer or buffer plus ligand samples. […] Samples were then cooled to room temperature, transferred to a quartz cuvette, and the spectra collected.
Experiment [4] deals with T1, GRP94. As to the kind of experiment: [3H]-NECA competitive displacement assay. It counts as binding, porcine. Details: GRP94 was purified from porcine pancreas rough microsomes; from tissue; host or cells: porcine pancreas rough microsomes. The following applies: for competition with [3H]-NECA for binding to GRP94 (adenosine ligands) / nucleoside base specificity: binding by [3H]-NECA competitive displacement: 20 nM [3H]-NECA; for competition with [3H]-NECA for binding to GRP94 (adenosine ligands): nominal (80 μM) Mg2+; for effect of excess Mg2+ on binding to GRP94: 10 mM Mg(OAc)2 vs nominal endogenous magnesium; for nucleoside base specificity: binding by [3H]-NECA competitive displacement: competitors all at 50 μM.

The target in experiment [5] is T1, GRP94. As to the kind of experiment: GRP94 autophosphorylation assay. It counts as biochemical, porcine. The settings on record: 180 μM NECA or 180 μM radicicol in 3.6% DMSO, 5 μg/ml heparin, 5 mM GTP; 1 hour 37° C. On the set-up: GRP94 was purified from porcine pancreas rough microsomes; from tissue; host or cells: porcine pancreas rough microsomes. Here is the method: (§1) Phosphorylation Assays. […] For the casein kinase assay, 1 unit of casein kinase 11 was incubated as described above, with the addition of 4 μM casein. […] The 25 μl reaction mixtures were incubated at 37° C. for 1 hour and quenched by addition of 10% trichloroacetic acid. Samples were analyzed by 10% SDS-PAGE gels and the phosphorylated species were quantitated using a Fuji MACBAS1000™ phosphorimaging system (Fuji Medical Systems of Stamford, Conn.).

The target of another experiment is casein kinase II (Homo sapiens, UniProt P68400). The experiment in a line: Casein kinase II assay with casein. It counts as biochemical. The following applies: 180 μM NECA or 180 μM radicicol in 3.6% DMSO, 5 μg/ml heparin, 5 mM GTP; 4 μM casein. Here is the method: as §1
Chain of casein kinase II (P68400 whole entry): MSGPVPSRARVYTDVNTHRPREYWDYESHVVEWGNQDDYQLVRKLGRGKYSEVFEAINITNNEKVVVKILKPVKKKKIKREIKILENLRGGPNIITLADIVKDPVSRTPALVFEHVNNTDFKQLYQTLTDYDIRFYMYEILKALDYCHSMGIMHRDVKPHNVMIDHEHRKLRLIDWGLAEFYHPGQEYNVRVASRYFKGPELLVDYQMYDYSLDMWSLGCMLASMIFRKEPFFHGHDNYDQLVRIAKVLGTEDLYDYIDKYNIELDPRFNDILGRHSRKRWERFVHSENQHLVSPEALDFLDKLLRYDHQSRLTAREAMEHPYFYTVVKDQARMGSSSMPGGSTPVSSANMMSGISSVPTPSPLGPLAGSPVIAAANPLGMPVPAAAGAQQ
Chain of casein kinase II (P67870 whole entry partner): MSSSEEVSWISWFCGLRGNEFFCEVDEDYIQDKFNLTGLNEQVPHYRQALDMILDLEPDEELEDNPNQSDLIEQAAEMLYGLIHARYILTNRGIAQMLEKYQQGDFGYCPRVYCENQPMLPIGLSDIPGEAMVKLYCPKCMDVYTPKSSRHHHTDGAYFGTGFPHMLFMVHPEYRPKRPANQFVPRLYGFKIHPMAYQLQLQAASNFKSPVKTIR

T1 sequence (Q29092 22-804): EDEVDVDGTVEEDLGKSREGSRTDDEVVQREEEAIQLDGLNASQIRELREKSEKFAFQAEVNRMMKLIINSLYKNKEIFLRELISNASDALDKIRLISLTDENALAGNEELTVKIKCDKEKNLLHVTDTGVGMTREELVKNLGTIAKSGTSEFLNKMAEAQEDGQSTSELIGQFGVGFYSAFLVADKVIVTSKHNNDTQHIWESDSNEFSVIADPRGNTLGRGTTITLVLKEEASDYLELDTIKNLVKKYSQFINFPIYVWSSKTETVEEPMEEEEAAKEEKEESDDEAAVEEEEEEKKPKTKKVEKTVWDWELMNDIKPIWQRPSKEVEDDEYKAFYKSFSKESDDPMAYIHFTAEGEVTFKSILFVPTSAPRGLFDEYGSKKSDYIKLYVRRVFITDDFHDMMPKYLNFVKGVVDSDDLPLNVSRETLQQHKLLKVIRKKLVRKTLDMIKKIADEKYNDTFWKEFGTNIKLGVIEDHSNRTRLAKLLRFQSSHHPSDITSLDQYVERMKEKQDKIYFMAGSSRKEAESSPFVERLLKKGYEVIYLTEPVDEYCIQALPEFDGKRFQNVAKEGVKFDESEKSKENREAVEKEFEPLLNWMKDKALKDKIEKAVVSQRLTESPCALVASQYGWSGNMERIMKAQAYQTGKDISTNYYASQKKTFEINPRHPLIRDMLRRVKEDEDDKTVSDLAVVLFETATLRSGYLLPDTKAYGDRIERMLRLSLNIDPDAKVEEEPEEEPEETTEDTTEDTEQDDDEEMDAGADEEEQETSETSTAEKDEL
Chain of N-terminal nucleotide binding pocket of Hsp90 (P02829 whole entry): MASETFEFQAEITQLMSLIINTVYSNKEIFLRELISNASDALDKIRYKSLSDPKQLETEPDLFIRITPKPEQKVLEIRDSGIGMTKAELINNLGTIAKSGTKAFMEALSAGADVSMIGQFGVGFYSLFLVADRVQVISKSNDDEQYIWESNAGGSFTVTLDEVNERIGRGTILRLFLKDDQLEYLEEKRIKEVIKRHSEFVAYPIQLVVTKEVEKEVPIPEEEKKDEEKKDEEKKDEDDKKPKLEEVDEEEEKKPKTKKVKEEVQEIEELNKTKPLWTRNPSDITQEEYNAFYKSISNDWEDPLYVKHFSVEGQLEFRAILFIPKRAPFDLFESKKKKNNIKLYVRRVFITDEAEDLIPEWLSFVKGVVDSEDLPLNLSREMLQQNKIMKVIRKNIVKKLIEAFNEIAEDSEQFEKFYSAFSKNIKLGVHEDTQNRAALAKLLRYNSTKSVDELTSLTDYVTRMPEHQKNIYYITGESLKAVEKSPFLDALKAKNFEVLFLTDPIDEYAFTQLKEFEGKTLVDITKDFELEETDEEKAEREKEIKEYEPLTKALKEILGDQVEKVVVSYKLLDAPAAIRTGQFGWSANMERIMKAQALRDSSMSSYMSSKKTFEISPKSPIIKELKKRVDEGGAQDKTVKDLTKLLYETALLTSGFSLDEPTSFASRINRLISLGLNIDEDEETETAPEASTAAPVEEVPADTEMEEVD

In the case of `O=S(=O)(O)c1cccc2cccc(Nc3ccccc3)c12` [8-ANS, 1,8-anilinonaphthalenesulfonate], the “fluorophore binding to heat shocked GRP94” value on GRP94 [1] is reported as “binds avidly following heat shock”. In addition, the “fluorophore binding to native GRP94” value at GRP94 [1] (0.5 μM native GRP94, 5 μM probe, 30 min at 37° C.) is given as “weak interactions with native GRP94”.

For `Nc1ncnc2c1ncn2[C@@H]1O[C@H](COP(=O)(O)OP(=O)(O)O)[C@@H](O)[C@H]1O` [ADP], the “affinity of N-terminal domain of Hsp90 for ADP relative to ATP” value in experiment [2] (Prodromou et al. (1997)) is given as “four-fold higher affinity than that observed for ATP”. Further, the “change of GRP94 tryptophan fluorescence” value at GRP94 [3] is listed as “the tryptophan fluorescence was decreased”. On GRP94 [4], the “competition with [3H]-NECA for binding to GRP94 (adenosine ligands)” value (“competition with [3H]-NECA for binding” below) is “effectively competed” and the “effect of excess Mg2+ on binding to GRP94” value (“effect of excess Mg2+” below) is reported as “markedly stimulated”. Moreover, the “extent of competition of NECA binding to GRP94” value on GRP94 [4] (FIGS. 10A–10C) is reported as “wholly competed”. In addition, the “relative affinities for GRP94 in presence of Mg2+” value at GRP94 [4] (excess Mg2+) is “nearly identical relative affinities”.

As to `Nc1ncnc2c1ncn2[C@@H]1O[C@H](COP(=O)(O)O)[C@@H](O)[C@H]1O` [AMP], at GRP94 [4], the “competition with [3H]-NECA for binding” value is “effectively competed” and the “effect of excess Mg2+” value is given as “markedly stimulated”.

Turning to `Nc1ccn([C@@H]2O[C@H](COP(=O)(O)OP(=O)(O)OP(=O)(O)O)[C@@H](O)[C@H]2O)c(=O)n1` [CTP], the “nucleoside base specificity: binding by [3H]-NECA competitive displacement” value (“nucleoside base specificity: binding” for short) at GRP94 [4] was “little to no binding”.

Turning to `Nc1nc2c(ncn2[C@@H]2O[C@H](COP(=O)(O)OP(=O)(O)OP(=O)(O)O)[C@@H](O)[C@H]2O)c(=O)[nH]1` [GTP], the “effect on GRP94 autophosphorylation activity” value at GRP94 [5] is given as “markedly attenuated”. Also, the “nucleoside base specificity: binding” value at GRP94 [4] is reported as “little to no binding”. Besides, the “effect on casein kinase II activity” value on casein kinase II is listed as “markedly attenuated”.

With `CCC(=O)c1ccc2cc(N(C)C)ccc2c1` [Prodan, 6-propionyl-2-(dimethylamino)naphthalene], on GRP94 [1], the “fluorophore binding to heat shocked GRP94” value was “does not interact with the hydrophobic binding pocket(s) displayed by heat shocked GRP94”.

Consider `O=c1ccn([C@@H]2O[C@H](COP(=O)(O)OP(=O)(O)OP(=O)(O)O)[C@@H](O)[C@H]2O)c(=O)[nH]1` [UTP], for which the “nucleoside base specificity: binding” value on GRP94 [4] is “little to no binding”.

For `Nc1ncnc2c1ncn2[C@@H]1O[C@H](CO)[C@@H](O)[C@H]1O` [adenosine], at GRP94 [4], the “competition with [3H]-NECA for binding” value was “relative displacement activity approximating that observed for ADP” and the “effect of excess Mg2+” value is “without effect”.

Consider `Nc1ncnc2c1ncn2[C@H]1C[C@H](O)[C@@H](COP(=O)(O)OP(=O)(O)OP(=O)(O)O)O1` [deoxyATP], for which the “nucleoside base specificity: binding” value at GRP94 [4] is given as “could bind”.

As to `C[C@@H]1C[C@H]2O[C@@H]2/C=C\C=C\C(=O)Cc2c(Cl)c(O)cc(O)c2C(=O)O1` [radicicol], the “binding stoichiometry of radicicol to Hsp90” value in experiment [2] (Roe et al. (1999)) is recorded as 2 mol radicicol/mol Hsp90 dimer. The “effect on casein kinase II activity” value at casein kinase II is “neither NECA nor radicicol, both of which bind to the N-terminal nucleotide binding domain of GRP94, significantly inhibit GRP94 derived or casein kinase II activity”.

For the compound heparin, the “effect on GRP94 autophosphorylation activity” value on GRP94 [5] is reported as “markedly attenuated”. For the same compound, the “effect on casein kinase II activity” value at casein kinase II is “markedly attenuated”.

The record behind these values is patent US7235649B2, “Isolated GRP94 ligand binding domain polypeptide and nucleic acid encoding same, and screening methods employing same” (Duke University, priority 2000, dated 2007).
